From ChEMBL document CHEMBL1201862, “PubChem BioAssay data set” (2004)
Calls of active or inactive are those of the source.

How the values were obtained:
[1] = biological target: T1, Endoribonuclease toxin MazF (Escherichia coli K-12, UniProt P0AE70); assay: fluorescent RNA oligo signal without MazF, dose response, counter-screen for MazEF activator project, biochemical, fluorescence, single-stranded RNase substrate (AID 588502); assay type: functional
[2] = biological target: T1, Endoribonuclease toxin MazF; assay: MazF toxin RNase activators, dose response, biochemical, fluorescence, single-stranded RNA substrate, uHTS hits (AID 588481); assay type: functional
[3] = biological target: Phospholipase D1 (Homo sapiens, UniProt Q13393); assay: PLD1 inhibitor potency in cells, dose response (AID 602151); assay type: functional;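 further: cellular PLD1 assay in Calu-1 cells stimulated with PMA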
Chain of Phospholipase D1 (Q13393 whole entry): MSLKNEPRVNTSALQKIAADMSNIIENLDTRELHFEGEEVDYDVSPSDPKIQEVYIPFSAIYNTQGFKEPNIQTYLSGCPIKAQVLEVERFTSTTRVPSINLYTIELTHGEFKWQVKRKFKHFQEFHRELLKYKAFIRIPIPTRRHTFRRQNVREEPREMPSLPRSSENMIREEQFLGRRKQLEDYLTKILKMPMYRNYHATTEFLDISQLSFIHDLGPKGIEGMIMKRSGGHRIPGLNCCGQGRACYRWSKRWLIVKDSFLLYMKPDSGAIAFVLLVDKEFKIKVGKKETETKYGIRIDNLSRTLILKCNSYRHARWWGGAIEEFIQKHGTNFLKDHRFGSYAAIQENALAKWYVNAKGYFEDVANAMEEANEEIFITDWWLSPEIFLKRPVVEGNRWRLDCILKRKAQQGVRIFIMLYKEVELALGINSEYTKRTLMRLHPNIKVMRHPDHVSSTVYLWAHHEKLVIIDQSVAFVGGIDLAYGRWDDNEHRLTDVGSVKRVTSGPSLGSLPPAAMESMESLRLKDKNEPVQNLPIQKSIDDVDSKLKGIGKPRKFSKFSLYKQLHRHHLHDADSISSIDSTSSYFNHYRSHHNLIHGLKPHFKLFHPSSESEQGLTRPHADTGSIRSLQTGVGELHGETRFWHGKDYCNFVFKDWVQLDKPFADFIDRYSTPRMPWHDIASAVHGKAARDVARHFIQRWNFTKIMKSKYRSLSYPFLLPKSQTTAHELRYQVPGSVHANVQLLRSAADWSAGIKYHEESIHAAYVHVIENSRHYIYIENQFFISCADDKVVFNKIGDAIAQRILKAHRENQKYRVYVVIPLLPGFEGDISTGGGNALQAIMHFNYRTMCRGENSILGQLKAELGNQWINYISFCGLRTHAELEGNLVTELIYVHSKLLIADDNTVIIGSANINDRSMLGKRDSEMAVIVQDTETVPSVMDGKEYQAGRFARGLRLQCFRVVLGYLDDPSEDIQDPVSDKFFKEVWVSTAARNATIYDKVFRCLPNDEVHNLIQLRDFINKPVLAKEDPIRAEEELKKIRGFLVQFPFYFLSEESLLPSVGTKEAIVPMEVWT

[4] = biological target: Phospholipase D2 (Homo sapiens, UniProt O14939); assay: PLD2 inhibitor potency in cells, dose response (AID 602147); assay type: functional;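 further: cellular assay in HEK293 cells overexpressing GFP-tagged PLD2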
Chain of Phospholipase D2 (O14939 whole entry): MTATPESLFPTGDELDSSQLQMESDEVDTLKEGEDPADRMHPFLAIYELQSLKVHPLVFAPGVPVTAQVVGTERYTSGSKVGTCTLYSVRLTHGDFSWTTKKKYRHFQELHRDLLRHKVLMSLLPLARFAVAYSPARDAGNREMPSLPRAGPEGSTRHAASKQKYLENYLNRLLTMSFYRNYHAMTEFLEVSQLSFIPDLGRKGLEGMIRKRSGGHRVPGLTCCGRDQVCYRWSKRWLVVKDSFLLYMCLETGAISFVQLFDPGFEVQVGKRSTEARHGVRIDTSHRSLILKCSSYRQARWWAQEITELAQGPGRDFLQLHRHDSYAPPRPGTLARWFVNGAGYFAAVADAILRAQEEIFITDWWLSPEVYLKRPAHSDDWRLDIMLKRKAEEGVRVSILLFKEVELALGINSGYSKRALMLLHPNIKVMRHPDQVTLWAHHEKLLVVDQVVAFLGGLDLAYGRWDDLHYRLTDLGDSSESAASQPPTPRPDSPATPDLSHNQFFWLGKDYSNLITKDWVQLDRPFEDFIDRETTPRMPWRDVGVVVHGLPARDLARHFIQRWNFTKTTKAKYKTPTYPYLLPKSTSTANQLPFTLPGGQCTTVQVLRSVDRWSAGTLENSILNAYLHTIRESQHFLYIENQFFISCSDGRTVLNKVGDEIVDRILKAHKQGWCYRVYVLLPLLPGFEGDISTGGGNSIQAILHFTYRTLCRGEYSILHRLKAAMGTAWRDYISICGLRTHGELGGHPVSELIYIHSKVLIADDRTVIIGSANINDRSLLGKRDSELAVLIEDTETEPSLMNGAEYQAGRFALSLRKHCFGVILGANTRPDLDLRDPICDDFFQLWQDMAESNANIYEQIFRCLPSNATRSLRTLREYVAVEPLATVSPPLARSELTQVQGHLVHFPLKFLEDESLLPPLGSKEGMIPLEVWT

[5] = test system: NIH3T3; assay: cytotoxicity in NIH-3T3 fibroblasts, dose response, cytotoxicity control for antifungal drug resistance project, cell-based, Alamar Blue, fluconazole, dry powder (AID 488809); assay type: functional; settings: Mus musculus
[6] = test system: INS1; assay: protection from cytokine-induced mitochondrial depolarization, dose response, cell-based, INS-1E, JC-1 fluorescence ratio, dry powder (AID 488931); assay type: functional; settings: Rattus norvegicus
[7] = inhibitors of cytokine-induced nitrite release, dose response, cell-based, Griess absorbance, INS-1E, dry powder, set 3 (AID 488870); assay type: functional; settings: Rattus norvegicus
[8] = test system: INS1; assay: inhibitors of cytokine-induced nitrite release, dose response, cell-based, Griess absorbance, INS-1E, dry powder, set 2 (AID 488868); assay type: functional; settings: Rattus norvegicus
[9] = test system: INS1; assay: protection of INS-1E cells from cytokine death, dose response, ATP luminescence, dry powder (AID 488844); assay type: functional, cell-based; settings: Rattus norvegicus
[10] = test system: BJ; assay: cytotoxicity toward BJ-TERT-LT-ST fibroblasts, dose response, cell-based, RAS-independent, luminescence (AID 1935); assay type: functional; settings: Homo sapiens;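 further: BJ fibroblasts immortalized with TERT plus LT and ST oncogenes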
[11] = biological target: DNA repair protein RAD52 homolog (Homo sapiens, UniProt P43351); assay type: functional, biochemical
Chain of DNA repair protein RAD52 homolog (P43351 whole entry): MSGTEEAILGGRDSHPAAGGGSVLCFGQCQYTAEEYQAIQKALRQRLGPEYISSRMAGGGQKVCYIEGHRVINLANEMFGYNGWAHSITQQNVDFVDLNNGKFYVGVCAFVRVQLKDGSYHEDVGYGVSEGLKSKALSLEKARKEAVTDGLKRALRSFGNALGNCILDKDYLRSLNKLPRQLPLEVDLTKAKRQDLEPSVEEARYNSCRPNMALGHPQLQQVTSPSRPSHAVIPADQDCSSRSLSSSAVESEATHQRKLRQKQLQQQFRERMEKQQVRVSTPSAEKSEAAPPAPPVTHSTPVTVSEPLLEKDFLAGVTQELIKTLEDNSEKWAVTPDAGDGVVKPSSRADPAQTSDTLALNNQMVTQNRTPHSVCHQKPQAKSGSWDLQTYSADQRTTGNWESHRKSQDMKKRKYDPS

[12] = test system: Vero; assay: host cell cytotoxicity of antiviral hits, dose response, cytotoxicity control for West Nile virus antiviral project, secondary assay (AID 1650); assay type: functional; settings: Chlorocebus sabaeus
[13] = MDA-MB-231 cell growth inhibition, dose response, cytotoxicity control for RAD54 inhibitor project, CellTiter-Glo luminescence, cherry-pick (AID 651692); assay type: functional, cell-based
[14] = test system: BJ; assay: cytotoxicity toward BJ-TERT fibroblasts, dose response, cell-based, RAS-independent, luminescence (AID 1933); assay type: functional; settings: Homo sapiens
[15] = biological target: Dual specificity tyrosine-phosphorylation-regulated kinase 1A (Rattus norvegicus, UniProt Q63470); assay type: biochemical, Homo sapiens
[16] = cytotoxicity toward DRD oncogenic fibroblasts, dose response, cell-based, non-viral oncogenic, luminescence (AID 1934); assay type: functional; settings: Homo sapiens
[17] = test system: BJ; assay: cells; assay type: functional, cell-based; settings: Homo sapiens
[18] = biological target: DNA repair and recombination protein RAD54-like (Homo sapiens, UniProt Q92698); assay: inhibitors of human RAD54 branch migration, confirmation, biochemical, fluorescence, cherry-picked samples, dose series (AID 651657); assay type: functional
Chain of DNA repair and recombination protein RAD54-like (Q92698 whole entry): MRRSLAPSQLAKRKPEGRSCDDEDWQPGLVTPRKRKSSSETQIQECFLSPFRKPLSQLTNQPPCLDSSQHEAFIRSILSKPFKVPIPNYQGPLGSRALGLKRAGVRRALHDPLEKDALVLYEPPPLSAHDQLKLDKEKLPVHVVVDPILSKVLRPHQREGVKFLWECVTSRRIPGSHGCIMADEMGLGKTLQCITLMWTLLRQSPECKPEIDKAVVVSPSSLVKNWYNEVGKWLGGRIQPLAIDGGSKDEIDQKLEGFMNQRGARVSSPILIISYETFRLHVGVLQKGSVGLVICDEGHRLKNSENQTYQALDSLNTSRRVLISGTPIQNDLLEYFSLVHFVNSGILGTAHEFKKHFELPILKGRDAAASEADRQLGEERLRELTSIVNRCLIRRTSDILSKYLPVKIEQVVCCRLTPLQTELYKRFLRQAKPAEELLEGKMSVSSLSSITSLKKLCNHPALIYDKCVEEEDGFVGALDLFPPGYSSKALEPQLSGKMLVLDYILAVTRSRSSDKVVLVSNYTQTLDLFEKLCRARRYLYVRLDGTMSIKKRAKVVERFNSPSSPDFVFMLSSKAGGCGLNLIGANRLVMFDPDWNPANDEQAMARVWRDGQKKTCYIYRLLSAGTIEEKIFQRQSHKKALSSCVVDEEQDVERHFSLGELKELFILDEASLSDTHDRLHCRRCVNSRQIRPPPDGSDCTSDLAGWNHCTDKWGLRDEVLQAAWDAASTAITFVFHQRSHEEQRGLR

[19] = test system: BJ; assay: cytotoxicity toward Ras-transformed BJeLR fibroblasts, dose response, cell-based, alamar blue fluorescence, cherrypicked samples (AID 2631); assay type: functional; settings: Homo sapiens;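 further: confirmatory dose-response assay in RAS-dependent BJ fibroblasts engineered with TERT, LT and ST, with cytotoxicity read by fluorescence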

T1 sequence (P0AE70 whole entry): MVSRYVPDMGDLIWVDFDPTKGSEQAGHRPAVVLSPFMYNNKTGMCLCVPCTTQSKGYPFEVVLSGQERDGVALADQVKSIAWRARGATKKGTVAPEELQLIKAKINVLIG

Cc1sc(NC(=O)CSc2nnc(N)[nH]2)c(C#N)c1C
EC50 [1]: > 99 µM (inactive) | EC50 [2]: > 99 µM (inactive)

O=C(NCCN1CCC(n2c(=O)[nH]c3cc(I)ccc32)CC1)c1ccc(Cl)cc1
IC50 [3]: 0.005 µM (active) | IC50 [4]: 0.345 µM (active)

COc1ccc2c(c1)c1nc3n(c(=O)c1n2CC(=O)N1CCC(Cc2ccccc2)CC1)CCS3
AC50 [5]: 207 µM (active)

COc1cccc(S(=O)(=O)N(C)C[C@@H]2Oc3c(NC(=O)Nc4cccc5ccccc45)cccc3C(=O)N([C@@H](C)CO)C[C@H]2C)c1
AC50 [6]: 98.9 µM (active) | AC50 [7]: 29 µM (active) | AC50 [8]: 28.7 µM (active) | AC50 [9]: 77 µM (active)

Nc1nc(N)c2c(ccc3[nH]ccc32)n1
EC50 [10]: > 38 µM (not active) | AC50 [11]: 12 µM (active) | CC50 [12]: 5.14 µM (active) | AC50 [13]: 4.07 µM (active) | EC50 [14]: 112 µM (active) | AC50 [15]: 5.51 µM (active) | EC50 [16]: 14.4 µM (inconclusive) | EC50 [17]: 4.8 µM (inconclusive) | AC50 [18]: 38.6 µM (active) | EC50 [19]: > 133 µM (inactive)
